Measured values published in USRE32347E, “Hypocalcaemic peptides and process for their manufacture” (Ciba-Geigy Corp., priority 1984, dated 1987).
Ends that are not written are not given here.

Legend:
[1] = test system: calcium level of the blood; assay: calcium level of the blood in patients with increased bone turn over; format: in vivo, human; conditions: intravenous, intramuscular or subcutaneous injection of 0.01 to 5 mg, e.g. in 0.1 molar acetate buffer of pH 4.6
[2] = test system: blood calcium level; assay: rat test described by Kumar et al, J. Endocrinology 33, page 470 [1965] (MRC units); format: in vivo; conditions: for result in the rat test according to Kumar et al., in words: compared with HT-C2 / parent peptide
Text: It lowers the plasma calcium level and plasma phosphate level of the blood of mammals, as can be shown by tests on rats weighing 50 to 150 g. […] It may therefore be used for the treatment of hypercalcaemiae and of bone diseases such as Paget's disease or osteoporosis.

Substance | result in the rat test according to Kumar et al., in words [2] | also measured
Human calcitonin | – | calcium level of the blood [1]: lowers
HT-C1: the dimer of HT-C2; active component of human calcitonin (CGNLSTCMLGTYTQDFNKFHTFPQTAIGVGAP; ends and bridges not checked; also: dimer; UniProt P01258 85-116, looked up) | about as good results as the product obtained in Example 1 (HT-C2) | –
HT-C1 sulfoxide: sulfoxide obtained from HT-C1 with 5% hydrogenperoxide (CGNLSTCMLGTYTQDFNKFHTFPQTAIGVGAP; ends and bridges not checked; also: dimer (HT-C1, dimer of HT-C2); UniProt P01258 85-116, looked up) | equally active | –
HT-C11: active component of human calcitonin from fractions with K=4.0 (CGNLSTCMLGTYTQDFNKFHTFPQTAIGVGAP; ends and bridges not checked; cysteine pairing not given here; UniProt P01258 85-116, looked up) | – | activity ([2]; in the rat, per mg of peptide): 100-200 MRC units per mg
